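Results reflect a 48-hour exposure of cells in 96-well plates to compound at five concentrations. GI50: concentration for 50% inhibition of growth. TGI denotes the concentration required for complete inhibition of growth.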
Key:
Test in all cases: NCI-60 cell line screen, 48 h
MOLT-4 leukemia = system: MOLT-4 leukemia
MALME-3M melanoma = system: MALME-3M melanoma
SNB-75 CNS = system: SNB-75 CNS
CAKI-1 renal = system: CAKI-1 renal
SK-MEL-2 melanoma = system: SK-MEL-2 melanoma
HCC-2998 colon = system: HCC-2998 colon
HL-60(TB) leukemia = system: HL-60(TB) leukemia
NCI-H23 lung = system: NCI-H23 lung
HS 578T breast = system: HS 578T breast
MDA-MB-231 breast = system: MDA-MB-231 breast

| Compound | TGI (MOLT-4 leukemia) [µM] | TGI (MALME-3M melanoma) [µM] | TGI (SNB-75 CNS) [µM] | TGI (CAKI-1 renal) [µM] | TGI (SK-MEL-2 melanoma) [µM] | TGI (HCC-2998 colon) [µM] | TGI (HL-60(TB) leukemia) [µM] | TGI (NCI-H23 lung) [µM] | GI50 (HS 578T breast) [nM] | TGI (HS 578T breast) [µM] | GI50 (MOLT-4 leukemia) [nM] | GI50 (MALME-3M melanoma) [nM] | GI50 (NCI-H23 lung) [nM] | GI50 (SK-MEL-2 melanoma) [nM] | GI50 (HCC-2998 colon) [µM] | GI50 (HL-60(TB) leukemia) [µM] | GI50 (MDA-MB-231 breast) [µM] | TGI (MDA-MB-231 breast) [µM] | GI50 (CAKI-1 renal) [µM] | GI50 (SNB-75 CNS) [µM] |
| --- | --- | --- | --- | --- | --- | --- | --- | --- | --- | --- | --- | --- | --- | --- | --- | --- | --- | --- | --- | --- |
| N#C/C(=C1\OC(=N)C(c2ccccc2)C1=O)c1ccccc1 (stereo not drawn) | 74.6 | 36.8 | > 85.7 | > 96.6 | > 100 | > 100 | 54.4 |  |  |  |  |  |  |  |  |  |  |  |  |  |
| CCCCCCCCCCCCCCCC(=O)OCCOCCOCCOCCOCCOC(=O)CCCCCCCCCCCCCCC | > 100 | > 100 |  | > 100 | > 100 | > 100 | > 100 | > 100 |  |  |  |  |  |  |  |  |  |  |  |  |
| CCOC(=O)c1c(C)nc2c(c1N)/C(=C/c1ccccn1)C(=O)N2Cc1ccccc1 | > 50 | 2.2 |  |  | 3.01 | 1.77 | > 50 | 4.35 | 2820 | > 50 | 1720 | 937 | 1290 | 1160 | 0.895 | 1.61 |  |  |  |  |
| O=C(CC1C(=O)Nc2ccccc2S1(=O)=O)Nc1ccc(Cl)cc1 (stereo not drawn) | 37.6 | 86.9 | 37.6 | 43.5 | 65.3 | 39.6 | 42.1 | > 100 |  |  |  |  |  |  |  |  |  |  |  |  |
| COc1ccc2c(c1)/C(=C\c1c(-c3cc(OC)ccc3OC)nc3sccn13)C(=O)N2 |  | 2.97 |  | 13.8 | 4.2 |  |  | 2.83 |  |  |  | 1380 | 1470 | 1770 |  |  | 3.32 | 14.2 | 3.82 |  |
| C/C=C/C(=O)[O-].C/C=C/C(=O)[O-].N.N.N.N.[Co+3].[O-][Cl+3]([O-])([O-])[O-] | > 100 | > 100 | > 100 |  | > 100 | > 100 | > 100 | > 100 |  |  | > 100000 | > 100000 | > 100000 | > 100000 | > 100 | > 100 |  |  |  | 47.4 |
| C[N+](C)(C)c1cc[c]([Sn]([c]2ccc([N+](C)(C)C)cc2)([c]2ccc([N+](C)(C)C)cc2)[c]2ccc([N+](C)(C)C)cc2)cc1 |  | > 100 | > 100 |  | > 100 | > 100 | > 100 | > 100 |  |  |  | > 100000 | > 100000 | > 100000 | > 100 | > 100 |  |  |  | > 100 |
| CC1=CP(=O)(c2ccccc2)C=C(C)C1=C(Cl)Cl (stereo not drawn) | 21.6 |  | > 100 |  |  | 29.8 | 5.61 | 34.9 |  |  |  |  |  |  |  |  |  |  |  |  |
| COc1cc(/C=C(\NC(=O)c2ccccc2)c2nc3ncncc3[nH]2)cc(OC)c1OC | > 100 | > 100 |  | > 100 | > 100 | > 100 | > 100 | > 100 |  |  |  |  |  |  |  |  |  |  |  |  |
| O=C(Nc1ccccc1)OC1OC(COC(=O)c2ccccc2)C(OC(=O)c2ccccc2)C1OS(=O)(=O)c1ccc([N+](=O)[O-])cc1 (stereo not drawn) | > 100 | > 100 |  | > 100 | > 100 | > 100 | > 100 | > 100 |  | > 100 |  |  |  |  |  |  |  |  |  |  |
| CCOC(=N)CC(=O)Nc1ccccc1 | > 31.6 | > 46.4 | > 46.4 | > 100 | > 31.6 | > 31.6 | > 100 | > 46.4 |  |  |  |  |  |  |  |  |  |  |  |  |
| Cc1ccc(N=C2N=C(N3CC(C)OC(C)C3)c3ccccc32)cc1 (stereo not drawn) | 47.8 | 99.4 | 88.5 | 51 | 70.4 | 79.5 |  | 78.8 |  |  |  |  |  |  |  |  |  |  |  |  |
| CCc1cc2c(O)c(c1)Cc1cc(CC)cc(c1O)Cc1cc(CC)cc(c1O)Cc1cc(CC)cc(c1O)Cc1cc(CC)cc(c1O)Cc1cc(CC)cc(c1O)Cc1cc(CC)cc(c1O)C2 | > 100 | > 100 | 61.4 |  | > 100 | > 100 | > 100 | > 100 |  |  |  |  |  |  |  |  |  |  |  |  |
| COc1ccc(/C=C/C(=O)c2c(-c3ccccc3)nn(C)c(=O)c2N2CCOCC2)cc1 | > 100 |  |  | > 100 |  |  | 60.6 | > 100 |  |  |  |  |  |  |  |  |  |  |  |  |
| O=C(N=c1nc(NC(=O)c2ccccc2)ss1)c1ccccc1 | > 100 | > 100 | > 100 | 75.8 | > 100 | > 100 | 40.6 | 92.5 |  |  |  |  |  |  |  |  |  |  |  |  |
| O=C(Nc1ccc(Cl)cc1C(=O)O)c1ccc([N+](=O)[O-])cc1 | 61.7 | 25.7 | > 100 |  | 16.9 | 39.6 | 50.8 |  |  |  |  |  |  |  |  |  |  |  |  |  |
| COc1ccc(O)cc1C(O)c1ccccc1 (stereo not drawn) | > 100 | > 100 | > 100 | > 100 | > 100 | > 100 | > 100 | > 100 |  |  |  |  |  |  |  |  |  |  |  |  |
| Cc1ccc(/C=C/C(=O)c2sc(-n3nc(-c4ccccc4)cc3-c3ccccc3)nc2C)cc1 | > 100 | > 100 | > 100 | > 100 | > 100 | > 100 | > 100 | > 100 |  |  |  |  |  |  |  |  |  |  |  |  |
